# Results reported in ChEMBL document CHEMBL1154822, “Synthesis and antiproliferative activity of 7-azaindirubin-3'-oxime, a 7-aza isostere of the natural indirubin pharmacophore” (J Nat Prod, 2009).
# What was measured:
# A498 = experiment: Cytotoxicity against human A498 cells assessed as cell growth at 10 uM after 48 hrs by MTT assay; format: functional; conditions: A498, 48 h, read-out: Activity
# IGROV-1 = experiment: Cytotoxicity against human IGROV1 cells assessed as cell growth at 10 uM after 48 hrs by MTT assay; format: functional; conditions: IGROV-1, 48 h, read-out: Activity
# SR = experiment: Cytotoxicity against human SR cells assessed as cell growth at 10 uM after 48 hrs by MTT assay; format: functional; conditions: read-out: Activity
# T47D = experiment: Cytotoxicity against human T47D cells assessed as cell growth at 10 uM after 48 hrs by MTT assay; format: functional; conditions: read-out: Activity
# NCI-H23 = experiment: Cytotoxicity against human NCI-H23 cells assessed as cell growth at 10 uM after 48 hrs by MTT assay; format: functional; conditions: NCI-H23, 48 h, read-out: Activity
# MDA-MB-435 = experiment: Cytotoxicity against human MDA-MB-435 cells assessed as cell growth at 10 uM after 48 hrs by MTT assay; format: functional; conditions: MDA-MB-435, 48 h, read-out: Activity
# [1] = molecular target: Cyclin-dependent kinase 2/cyclin A (Homo sapiens) (UniProt P24941+P20248+P78396); experiment: Inhibition of human CDK2/Cyclin A assessed as residual enzyme activity at 0.3 uM after 40 mins by scintillation counting; format: protein-complex assay
# CCRF-CEM = experiment: Cytotoxicity against human CCRF-CEM cells assessed as cell growth at 10 uM after 48 hrs by MTT assay; format: functional; conditions: read-out: Activity
# BT-549 = experiment: Cytotoxicity against human BT549 cells assessed as cell growth at 10 uM after 48 hrs by MTT assay; format: functional; conditions: BT-549, 48 h, read-out: Activity
# SK-OV-3 = experiment: Cytotoxicity against human SKOV3 cells assessed as cell growth at 10 uM after 48 hrs by MTT assay; format: functional; conditions: SK-OV-3, 48 h, read-out: Activity
# OVCAR-3 = experiment: Cytotoxicity against human OVCAR-3 cells assessed as cell growth at 10 uM after 48 hrs by MTT assay; format: functional; conditions: OVCAR-3, 48 h, read-out: Activity
# EKVX = experiment: Cytotoxicity against human EKVX cells assessed as cell growth at 10 uM after 48 hrs by MTT assay; format: functional; conditions: read-out: Activity
# MDA-MB-231 = experiment: Cytotoxicity against human MDA-MB-231 cells assessed as cell growth at 10 uM after 48 hrs by MTT assay; format: functional; conditions: MDA-MB-231, 48 h, read-out: Activity
# RXF 393 = experiment: Cytotoxicity against human […] cells assessed as cell growth at 10 uM after 48 hrs by MTT assay; format: functional; conditions: RXF 393, 48 h, read-out: Activity
# RPMI-8226 = experiment: Cytotoxicity against human RPMI8226 cells assessed as cell growth at 10 uM after 48 hrs by MTT assay; format: functional; conditions: RPMI-8226, 48 h, read-out: Activity
# U-251 = experiment: Cytotoxicity against human U251 cells assessed as cell growth at 10 uM after 48 hrs by MTT assay; format: functional; conditions: U-251, 48 h, read-out: Activity
# SF-295 = experiment: Cytotoxicity against human SF295 cells assessed as cell growth at 10 uM after 48 hrs by MTT assay; format: functional; conditions: SF-295, 48 h, read-out: Activity
# SW-620 = experiment: Cytotoxicity against human SW620 cells assessed as cell growth at 10 uM after 48 hrs by MTT assay; format: functional; conditions: SW-620, 48 h, read-out: Activity
# K562 = experiment: Cytotoxicity against human K562 cells assessed as cell growth at 10 uM after 48 hrs by MTT assay; format: functional; conditions: K562, 48 h, read-out: Activity
# CAKI-1 = experiment: Cytotoxicity against human Caki1 cells assessed as cell growth at 10 uM after 48 hrs by MTT assay; format: functional; conditions: CAKI-1, 48 h, read-out: Activity
# SN12C = experiment: Cytotoxicity against human SN12C cells assessed as cell growth at 10 uM after 48 hrs by MTT assay; format: functional; conditions: read-out: Activity
# MCF7 = experiment: Cytotoxicity against human MCF7 cells assessed as cell growth at 10 uM after 48 hrs by MTT assay; format: functional; conditions: MCF7, 48 h, read-out: Activity
# MOLT-4 = experiment: Cytotoxicity against human MOLT4 cells assessed as cell growth at 10 uM after 48 hrs by MTT assay; format: functional; conditions: MOLT-4, 48 h, read-out: Activity
# COLO 205 = experiment: Cytotoxicity against human COLO205 cells assessed as cell growth at 10 uM after 48 hrs by MTT assay; format: functional; conditions: COLO 205, 48 h, read-out: Activity
# KM12 = experiment: Cytotoxicity against human KM12 cells assessed as cell growth at 10 uM after 48 hrs by MTT assay; format: functional; conditions: KM12, 48 h, read-out: Activity
# [2] = Cytotoxicity against human Hs 578T cells assessed as cell growth at 10 uM after 48 hrs by MTT assay; format: functional; conditions: read-out: Activity
# HL-60(TB) = experiment: Cytotoxicity against human HL-60(TB) cells assessed as cell growth at 10 uM after 48 hrs by MTT assay; format: functional; conditions: HL-60, 48 h, read-out: Activity
# SF-268 = experiment: Cytotoxicity against human SF268 cells assessed as cell growth at 10 uM after 48 hrs by MTT assay; format: functional; conditions: SF-268, 48 h, read-out: Activity
# HOP-92 = experiment: Cytotoxicity against human HOP92 cells assessed as cell growth at 10 uM after 48 hrs by MTT assay; format: functional; conditions: HOP-92, 48 h, read-out: Activity
# A549 = experiment: Cytotoxicity against human A549 cells assessed as cell growth at 10 uM after 48 hrs by MTT assay; format: functional; conditions: A549, 48 h, read-out: Activity
# OVCAR-4 = experiment: Cytotoxicity against human OVCAR4 cells assessed as cell growth at 10 uM after 48 hrs by MTT assay; format: functional; conditions: OVCAR-4, 48 h, read-out: Activity
# SNB-75 = experiment: Cytotoxicity against human SNB75 cells assessed as cell growth at 10 uM after 48 hrs by MTT assay; format: functional; conditions: SNB-75, 48 h, read-out: Activity
# ACHN = experiment: Cytotoxicity against human ACHN cells assessed as cell growth at 10 uM after 48 hrs by MTT assay; format: functional; conditions: read-out: Activity
# NCI-H322M = experiment: Cytotoxicity against human NCI-H322M cells assessed as cell growth at 10 uM after 48 hrs by MTT assay; format: functional; conditions: read-out: Activity
# MDA-MB-468 = experiment: Cytotoxicity against human MDA-MB-468 cells assessed as cell growth at 10 uM after 48 hrs by MTT assay; format: functional; conditions: MDA-MB-468, 48 h, read-out: Activity
# HCT-15 = experiment: Cytotoxicity against human HCT15 cells assessed as cell growth at 10 uM after 48 hrs by MTT assay; format: functional; conditions: HCT-15, 48 h, read-out: Activity
# LOX IMVI = experiment: Cytotoxicity against human LOXIMVI cells assessed as cell growth at 10 uM after 48 hrs by MTT assay; format: functional; conditions: read-out: Activity
# NCI-H226 = experiment: Cytotoxicity against human NCI-H226 cells assessed as cell growth at 10 uM after 48 hrs by MTT assay; format: functional; conditions: NCI-H226, 48 h, read-out: Activity
Structure (SMILES),growth at 10 µM (A498) [%],growth at 10 µM (IGROV-1) [%],growth at 10 µM (SR) [%],growth at 10 µM (T47D) [%],growth at 10 µM (NCI-H23) [%],growth at 10 µM (MDA-MB-435) [%],Activity [1] [%],growth at 10 µM (CCRF-CEM) [%],growth at 10 µM (BT-549) [%],growth at 10 µM (SK-OV-3) [%],growth at 10 µM (OVCAR-3) [%],growth at 10 µM (EKVX) [%],growth at 10 µM (MDA-MB-231) [%],growth at 10 µM (RXF 393) [%],growth at 10 µM (RPMI-8226) [%],growth at 10 µM (U-251) [%],growth at 10 µM (SF-295) [%],growth at 10 µM (SW-620) [%],growth at 10 µM (K562) [%],growth at 10 µM (CAKI-1) [%],further results
O=C1Nc2ncccc2/C1=C1/Nc2ccccc2/C1=N\O,-11.7,-25.3,32.8,49.1,89.7,72.6,100,84.8,45.2,6.5,69.3,35.5,78.6,29.4,69.5,87.3,94.9,82.8,53.2,12.4,growth at 10 µM (SN12C): 72.8%; growth at 10 µM (MCF7): 87.8%; growth at 10 µM (MOLT-4): 40.8%; growth at 10 µM (COLO 205): 106%; growth at 10 µM (KM12): 15%; growth at 10 µM [2]: -9.72%; growth at 10 µM (HL-60(TB)): 125%; growth at 10 µM (SF-268): 86.2%; growth at 10 µM (HOP-92): 54%; growth at 10 µM (A549): 46.6%; growth at 10 µM (OVCAR-4): 86.7%; growth at 10 µM (SNB-75): 31.2%; growth at 10 µM (ACHN): 22.6%; growth at 10 µM (NCI-H322M): 30.7%; growth at 10 µM (MDA-MB-468): 28.4%; growth at 10 µM (HCT-15): 33.9%; growth at 10 µM (LOX IMVI): 44.5%; growth at 10 µM (NCI-H226): 78.6%
CN1C(=O)/C(=C2/C(=O)N(C)c3ncccc32)c2cccnc21,120,52.2,124,109,103,101,114,89.4,81.8,111,132,98.4,117,101,105,95.8,98.9,109,137,95.5,growth at 10 µM (SN12C): 105%; growth at 10 µM (MCF7): 114%; growth at 10 µM (MOLT-4): 127%; growth at 10 µM (COLO 205): 117%; growth at 10 µM (KM12): 110%; growth at 10 µM [2]: 115%; growth at 10 µM (HL-60(TB)): 183%; growth at 10 µM (SF-268): 103%; growth at 10 µM (HOP-92): 108%; growth at 10 µM (A549): 101%; growth at 10 µM (OVCAR-4): 99.8%; growth at 10 µM (SNB-75): 75.5%; growth at 10 µM (ACHN): 94.6%; growth at 10 µM (NCI-H322M): 96.5%; growth at 10 µM (MDA-MB-468): 95.5%; growth at 10 µM (HCT-15): 96%; growth at 10 µM (LOX IMVI): 101%; growth at 10 µM (NCI-H226): 102%
O=C1Nc2ncccc2/C1=C1/Nc2ccccc2C1=O,117,-40.9,82.5,48.4,76,92.8,99,88.4,70.6,89.5,75.8,30.6,78.3,71.2,75.4,88.2,102,102,85.5,53.7,growth at 10 µM (SN12C): 90.6%; growth at 10 µM (MCF7): 41%; growth at 10 µM (MOLT-4): 85.3%; growth at 10 µM (COLO 205): 82.8%; growth at 10 µM (KM12): 89.5%; growth at 10 µM [2]: 72.5%; growth at 10 µM (HL-60(TB)): 173%; growth at 10 µM (SF-268): 84.4%; growth at 10 µM (HOP-92): 96.9%; growth at 10 µM (A549): 82.3%; growth at 10 µM (OVCAR-4): 80.4%; growth at 10 µM (SNB-75): 68.1%; growth at 10 µM (ACHN): 51.5%; growth at 10 µM (NCI-H322M): 79.7%; growth at 10 µM (MDA-MB-468): 42.8%; growth at 10 µM (HCT-15): 77.9%; growth at 10 µM (LOX IMVI): 76.3%; growth at 10 µM (NCI-H226): 89%
